# Measured values from PMC9218946, “Identification of a Subtype-Selective Allosteric Inhibitor of GluN1/GluN3 NMDA Receptors” (Frontiers in Pharmacology, 2022).
# Where a name gives a salt, the structure may show the parent alone.
# Target: T1, GluN1/GluN3A receptors (UniProt Q05586+Q9R1M7)
# Test: High-throughput Fluo-4 calcium assay (FDSS/μCell) in HEK-293 cells stably expressing GluN1/GluN3A
# Type: cell-based, human GluN1-1a, rat GluN3A
# Parameters: expressed in transfected cells
# Conditions: primary and secondary screening
# Method: The HEK-293 cells stably expressing GluN1/GluN3A receptors were seeded at a density of 10,000 cells/well in the 384-well plates, and expression was induced with 1 μg/ml doxycycline for 24–28 h. Then the culture medium was removed, Fluo-4 (Invitrogen) was loaded and the cells were incubated in the 37°C incubator away from light for 1 h ([Gee et al., 2000]). The plates were gently washed twice with Ca^2+-free buffer and then incubated with one of the 2560 compounds (from the Chinese National Compound Library) or DMSO (1% and 0.33%) for 20 min. A fixed concentration of 30 μM and dual concentrations of 10 μM and 30 μM were applied in the primary and secondary screening, respectively. Two replicates were set up for each condition. […] A FDSS/μCell platform (Hamamatsu) was used to measure the fluorescence signals. The excitation (Ex) and emission (Em) wavelengths were set to 480 and 540 nm, respectively. The inhibitory effects of tested compounds were compared by the ratios of fluorescence (F) with (F drug) and without (F control) the compounds. The F control value in these assays represented the value of basal Fluo-4 fluorescence plus glycine-stimulated fluorescence, and the F drug indicated the total Fluo-4 fluorescence after treatment of the drugs. Both the F drug and F control values were taken at the peak. The Ca^2+-free buffer used to dilute Fluo-4 and wash cell-plates contained (in mM): 140 NaCl, 5 KCl, 1 MgCl2, 10 glucose, 10 HEPES, and 0.5 EGTA. The pH was adjusted to 7.2 using NaOH. To dilute the compounds, 2 mM of free Ca^2+ was added in addition to the other components of the buffer.
# T1 sequence (Q9R1M7 24-1135, other chains not shown): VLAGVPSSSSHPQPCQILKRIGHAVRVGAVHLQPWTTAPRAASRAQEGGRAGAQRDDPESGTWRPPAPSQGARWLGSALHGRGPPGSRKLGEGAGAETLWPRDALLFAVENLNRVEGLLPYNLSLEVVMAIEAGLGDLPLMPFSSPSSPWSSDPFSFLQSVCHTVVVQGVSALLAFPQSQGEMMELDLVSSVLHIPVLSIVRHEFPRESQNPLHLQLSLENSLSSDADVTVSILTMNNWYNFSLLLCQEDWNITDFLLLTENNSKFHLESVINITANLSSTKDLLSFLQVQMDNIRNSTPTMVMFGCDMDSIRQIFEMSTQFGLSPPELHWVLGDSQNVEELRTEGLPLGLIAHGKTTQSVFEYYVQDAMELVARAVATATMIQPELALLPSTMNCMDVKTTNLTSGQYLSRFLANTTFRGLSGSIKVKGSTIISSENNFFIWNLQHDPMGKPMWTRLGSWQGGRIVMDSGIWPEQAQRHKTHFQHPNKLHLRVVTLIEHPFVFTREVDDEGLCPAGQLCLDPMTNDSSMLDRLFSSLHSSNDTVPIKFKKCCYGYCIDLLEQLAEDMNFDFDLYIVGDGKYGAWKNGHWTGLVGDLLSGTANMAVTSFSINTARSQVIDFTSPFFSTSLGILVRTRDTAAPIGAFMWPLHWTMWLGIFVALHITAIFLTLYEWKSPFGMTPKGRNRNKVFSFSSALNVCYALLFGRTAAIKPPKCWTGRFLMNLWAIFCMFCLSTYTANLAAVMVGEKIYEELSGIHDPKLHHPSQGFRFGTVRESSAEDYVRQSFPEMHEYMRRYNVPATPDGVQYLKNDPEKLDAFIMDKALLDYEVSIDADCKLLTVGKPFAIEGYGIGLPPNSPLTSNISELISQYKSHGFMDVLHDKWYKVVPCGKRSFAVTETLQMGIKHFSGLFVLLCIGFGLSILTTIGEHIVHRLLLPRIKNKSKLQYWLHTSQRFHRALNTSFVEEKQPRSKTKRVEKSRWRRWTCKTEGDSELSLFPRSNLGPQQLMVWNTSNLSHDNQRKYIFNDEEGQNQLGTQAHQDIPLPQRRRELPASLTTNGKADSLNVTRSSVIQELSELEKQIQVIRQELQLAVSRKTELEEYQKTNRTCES
row,Compound,identification in HTS
1,"O=C(O)c1cc(=O)c2c(Cl)cc(Cl)cc2[nH]1 [5,7-DCKA]",identified in both the primary screening and secondary screening
2,N[C@H](CO)C(=O)O [D-serine],identified in both the primary screening and secondary screening
3,O=c1[nH]c2cc(Cl)ccc2c(O)c1-c1cccc(Oc2ccccc2)c1 [L-701324],identified in both the primary screening and secondary screening
4,CCOC(=O)Nc1ccc(NCc2ccc(F)cc2)nc1N [flupirtine maleate],identified in both the primary screening and secondary screening
5,Nc1nc2ccc(OC(F)(F)F)cc2s1 [riluzole],identified in both the primary screening and secondary screening

# Target: GluN1/GluN3 receptors
# Test: not given
# Parameters: method as in Zhu et al., 2020
# Conditions: ref Zhu et al., 2020; cited from earlier work
row,Compound,IC50 [nM]
1,COc1ccc(OCC(c2ccc(OC)cc2)N2Cc3ccccc3C2=O)cc1 (stereo not shown) [EU1180-438],1800 ± 300

# Target: T1, GluN1/GluN3A receptors
# Test: Whole-cell patch-clamp recording on GluN1/GluN3A Flp-in T-REx 293 stable cell lines
# Type: cell-based, human GluN1-1a, rat GluN3A
# Parameters: expressed in transfected cells
# Conditions: 3 μM compound; whole-cell patch-clamp; mean ± SEM; drug application order as in FDSS/μCell Ca2+ imaging (CGP-78608, then glycine)
# Method: To establish GluN1/GluN3A stable cell lines, the human GluN1-1a (GenBank: NP_015566.1) and the rat GluN3A (GenBank: NP_612555.1) genes were subcloned into the pcDNA5-FRT-To and pcDNA3.1 vectors, respectively. An EGFP tag was added to the C-terminus of GluN1 or GluN3A using a T2A linker for identification of transfected cells during transient transfection. Point mutations were introduced by site-directed mutagenesis using PrimeSTAR (Takara). The human GluN2A (GenBank: NP_000824.1) gene was subcloned into the pcDNA3.1 vector. The chimeras GluN3A^670-673 MWPL/LEPF and GluN2A^550-553 LEPF/MWPL were generated using In-Fusion HD Cloning kits (Takara). All constructs were confirmed by DNA sequencing (Beijing Genomics Institute).
# The Flp-in T-Rex 293 cell lines (Invitrogen), stably expressing GluN1/GluN3A were grown in DMEM basal medium (Gibco) supplemented with 10% fetal bovine serum (FBS, Invitrogen), 15 μg/ml blasticidin S (Invitrogen), 50 μg/ml hygromycin B (Invitrogen) and 500 μg/ml G418 (Gibco). Expression in cell lines was induced with 1 μg/ml doxycycline (Invitrogen) 24–28 h prior to the experiments. Chinese hamster ovary (CHO) cells were grown in DMEM-F12 basal medium (Gibco) supplemented with 10% FBS. In the study on the action sites of WZB117, all whole-cell patch-clamp recordings were performed on CHO cells. The transfections were carried out using Lipofectamine 3000 transfection reagent (Thermo Fisher) according to the manufacturer’s instructions. All cells mentioned above were cultured in a 5% CO2 incubator at 37°C and passaged every other day at a ratio of 1:3.
# Whole-cell patch-clamp recordings were performed at room temperature (22–25°C) using an EPC-10 amplifier and Patch Master Software (HEKA). Pipettes were pulled from borosilicate glass capillaries (World Precision Instruments), and the resistances were 3–5 MΩ when filled with the intracellular solution. The extracellular solution contained (in mM): 140 NaCl, 2.8 KCl, 1 CaCl2, 10 HEPES and 20 sucrose (290–300 mOsm), pH adjusted to 7.3 using NaOH. The pipette solution contained (in mM): 115 CsF, 10 CsCl, 10 HEPES and 10 BAPTA (280–290 mOsm), pH adjusted to 7.2 using CsOH ([Grand et al., 2018]). When recording in hippocampal neurons, the extracellular solution contained (in mM): 140 NaCl, 5 KCl, 1 CaCl2, 1.25 MgCl2, 10 glucose, and 10 HEPES, and the pH was adjusted to 7.4 using NaOH, and the pipette solution contained (in mM): 140 KCl, 1 MgCl2, 10 EGTA, and 10 HEPES, and the pH was adjusted to 7.2 using KOH ([Xie et al., 2020]). Drug-containing solutions were applied through an RSC-200 Rapid Solution Changer with a 9-tube head (BioLogic Co., France), in which the cell is positioned close to the output of a capillary. The solution, containing either one drug or a combination of different drugs, to be assayed flows out of the capillary at a moderate flow rate by gravity. The lifted cell, exposed to this stream, rapidly equilibrates in the perfusion solution. Whole-cell patch-clamp recordings in heterologous cells and hippocampal neurons were performed at a holding potential of −60 mV. Currents were sampled at 10 kHz and low pass filtered at 2.9 kHz. To record the native GluN1/GluN3 receptor-mediated currents, the extracellular solution was supplemented with 10 μM bicuculline (Sigma-Aldrich), 2 μM NBQX (Topscience), 100 μM D-APV (MCE), and 50 μM strychnine (UHN Shanghai) to block γ-aminobutyric acid type A (GABAA), α-amino-3-hydroxy-5-methylisoxazole-4-propionate (AMPA), GluN1/GluN2 NMDA and glycine receptors, respectively. To record the native GluN2-NMDARs-mediated currents, 10 μM bicuculline and 2 μM NBQX were added into the extracellular solution to block GABAA receptors and AMPA receptors, respectively ([Grand et al., 2018]; [Otsu et al., 2019]; [Zhu et al., 2020]).
# Patch-clamp data were processed using Clampfit 10.4 (Molecular Device, Sunnyvale, CA, United States) and analyzed with GraphPad Prism 5.0 (GraphPad Software, San Diego, CA, United States). […]
row,Compound,I drug/I control
1,COc1ccc(S(=O)(=O)N(CCO)c2ccccc2CN(C)C/C=C/c2ccc(Cl)cc2)cc1.O=P(O)(O)O [KN93 Phosphate],0.90 ± 0.02
2,CCCCCCCCCCCCCCCCn1cc[n+](Cc2ccccc2)c1C.[I-] [NH125],0.84 ± 0.03

# Same assay, conditions: Flp-In-T-REx-293; read-out: I drug/I control
row,Compound,remaining activity at 3 µM [%]
1,CC(C)c1cc(C(C)C)c(CC(=O)NS(=O)(=O)Oc2c(C(C)C)cccc2C(C)C)c(C(C)C)c1 [Avasimibe],86 ± 3
2,COc1cc(OC)c(C=C2C(O)=Nc3ccccc32)c(OC)c1 [IC261],88 ± 1
3,NC(=O)N1CCC(CC(=O)N2CCC([C@H]3c4ncc(Br)cc4CCc4cc(Cl)cc(Br)c43)CC2)CC1 [Lonafarnib],98 ± 2
4,O=C(O)c1cc(O)c2c(c1)C(=O)c1cccc(O)c1C2=O [Rhein],80 ± 4
5,Nc1n[n+]([O-])c2ccccc2[n+]1[O-] [Tirapazamine],103 ± 5

# Continued, values first:
row,remaining activity at 3 µM [%],Compound
1,84 ± 4,CNc1nc(-c2ccc3c(N)n[nH]c3c2)cc(N2C[C@@H](C(=O)NC3CCCCC3)CC[C@H]2C)n1 [GSK2334470]
2,48 ± 2,"Cc1ccc(CN(Cc2ccc(-c3ccccc3S(=O)(=O)NC#N)cc2)C(=O)c2ccccc2Cl)cc1 [S0859, 2-chloro-N-[2'-(N-cyanosulfamoyl)biphenyl-4-ylmethyl]-N-(4-methylbenzyl) benzamide]"
3,89 ± 4,Cc1[nH]c(/C=C2\C(=O)Nc3ccccc32)c(C)c1CCC(=O)O [SU6668]
4,92 ± 6,CC(C)(O)CC(=O)NCCn1ccc2ncnc(Nc3ccc(Oc4cccc(C(F)(F)F)c4)c(Cl)c3)c21 [TAK285]
5,53 ± 2,"Oc1ccc(-c2nc3cc(O)cc(Br)c3o2)cc1 [WAY200070, 7-bromo-2-(4-hydroxyphenyl) benzoxazol-5-ol]"

# System: GluN3A
# Test: not given
# Conditions: ref Yao and Mayer, 2006; cited from earlier work
row,Compound,higher affinity for GluN3A than for GluN1 [fold]
1,NCC(=O)O [glycine],650
